Source: US20250214991A1 (Oncopia Therapeutics, Inc. d/b/a/ SK Life Science Labs, priority 2022, published 2025)

How the values were obtained:
CRBN/DDB1 = CRBN/DDB1 (Homo sapiens (Human), UniProt Q96SW2); test: IC50 measurements for binding to CRBN/DDB1 (HTRF); conditions: His tagged CRBN+DDB, Cy5-labeled Thalidomide probe, one hour
Method: In vitro Assay: IC50 Measurements for binding to CRBN/DDB1 (Table E1)
The binding potency was determined using HTRF assay technology (Perkin Elmer). Compounds were serially diluted in DMSO and 0.2 μL volume was transferred to white 384-well plate. The reaction was conducted in total volume of 20 μL with addition of 2 nM His tagged CRBN+DDB−DLS7+CXU4 (Wuxi, catalogue #RP210521GA) to compounds followed by addition of 60 nM Fluorescent probe Cy5-labeled Thalidomide (Tenova Pharma, catalogue #T52461), and 0.4 nM of MAb Anti-6HIS Tb cryptate Gold (Cisbio, catalogue #61HI2TLA in the assay buffer (50 mM HEPES pH 7.5, 1 mM TCEP, 0.01% Brij-35, 50 mM NaCl, and 0.1% BSA). After one hour incubation at room temperature, the HTRF signals were read on Envision reader (Perkin Elemer). Data was analyzed using XLfit using four parameters dose response curve to determine IC50s. A: IC50<0.1 μM; B: 0.1 μM<IC50<[…]; C: 0.5 μM<IC50<1 μM; D: 1 μM<IC50<5 μM; E: 5 μM<IC50<10 μM

IKZF2 = IKZF2 (Homo sapiens (Human), UniProt Q96SW2+Q9UKS7); test: In vitro IKZF2 HiBit Assay (HEK293T Flp-in-HiBiT cells); assay type: cell-based; conditions: HEK293T Flp-in-HiBiT cells, 6 hrs incubation; for DC50: read-out: IKZF2 HiBit DC50; for Dmax: HEK-293T, read-out: IKZF2 HiBit Dmax (%)
Method: In Vitro IKZF2 HiBit Assay
The HiBiT protein tagging system was applied to modified HEK293T Flp-in-HiBiT cells (polyclone) via a CRISPR/Cas9-mediated insertion of the HiBiT peptide tag (Promega™) to the N-terminus of the IKZF2 gene locus (Neon™ transfection system). Test and reference compounds are diluted from 1 mM at 3 folds for 11 doses. 25 nL of diluted compound is transfered to assay plates (Corning3570) using ECHO550, the final DMSO concentration @ 0.1%. The cells are seeded in 3000/25 μL/well to compound plates. It is then incubated for 6 hrs in TC incubator. The amount of Nano-Glo® HiBiT lytic reagent needed to perform the desired experiments is calculated. The Nano-Glo® HiBiT lytic reagent is brought to room temperature. The LgBiT protein is diluted to 1:100 and the Nano-Glo® HiBiT lytic substrate is diluted to 1:50 into an appropriate volume of room temperature Nano-Glo® HiBiT lytic buffer. 15 μL of the detection reagent (or without LgBiT) is dispensed to corresponding well according to the layout. The plate is then shaked for 10 mins at room temperature. After briefly centrifuge, the plate is read on Envision. At the indicated timepoints, the Nano-Glo® HiBiT lytic detection system (Promega™) was utilized for detecting bioluminescence of the HiBiT tag in treated cells: abundance of the tag is proportionate to the level of luminescence. Following normalization to DMSO, dose-response curves were plotted (GraphPad Prism) to determine the concentration points at which 50% of HiBiT-Helios degradation was achieved by each compound. The extent of degradation (range of luminescence) from the highest to lowest concentration points was calculated to determine the Dmax.
(§1) DC50, A: <1 nM; B: 1-10 nM; C: 10-100 nM; D: 100-1000 nM; E: 1000-10000 nM; F: >10,000 nM. Dmax, A: >80%; B: 60-80%; C: 40-60%; D: 20-40%; E: <20%.

IKZF1 = IKZF1 (Homo sapiens (Human), UniProt Q13422+Q96SW2); test: In vitro IKZF1 HiBit Assay (HEK293T Flp-in-HiBiT-IKZF1 stable cell line); assay type: cell-based; conditions: HEK293T Flp-in-HiBiT-IKZF1 stable cell line, 6 hrs incubation; for DC50: read-out: IKZF1 HiBit DC50; for Dmax: HEK-293T, read-out: IKZF1 HiBit Dmax (%)
Method: In Vitro IKZF1 HiBit Assay
The HiBiT protein tagging system was applied to modified Cells: modified HEK293T Flp-in-HiBiT-IKZF1 stable cell line (polyclone) via a CRISPR/Cas9-mediated insertion of the HiBiT peptide tag (Promega™) to the N-terminus of the […] gene locus (Neon™ transfection system).
25 nL of diluted compound is transferred to assay plates (Corning3571) using ECHO550, the final DMSO concentration @ 0.1%. The cells are seeded in 3000/25 μL/well to compound plates. The plates are incubated for 6 hrs in TC incubator. The amount of Nano-Glo® HiBiT lytic reagent needed to perform the desired experiments is calculated. The Nano-Glo® HiBiT lytic reagent is brought to room temperature. The LgBiT protein is diluted to 1:100 and the Nano-Glo® HiBiT lytic substrate is brought to 1:50 into an appropriate volume of room temperature Nano-Glo® HiBiT lytic buffer. 15 μL of the detection reagent (or without LgBiT) is dispensed to corresponding well according to the layout. The plate is shaked for 10 mins at room temperature. After briefly centrifuge, the plateis read on Envision. At the indicated timepoints, the Nano-Glo® HiBiT lytic detection system (Promega™) was utilized for detecting bioluminescence of the HiBiT tag in treated cells: abundance of the tag is proportionate to the level of luminescence. Following normalization to DMSO, dose-response curves were plotted (GraphPad Prism) to determine the concentration points at which 50% of HiBiT-Ikaros degradation was achieved by each compound. The extent of degradation (range of luminescence) from the highest to lowest concentration points was calculated to determine the Dmax.
as §1

IKZF1, sequence (Q13422 whole entry): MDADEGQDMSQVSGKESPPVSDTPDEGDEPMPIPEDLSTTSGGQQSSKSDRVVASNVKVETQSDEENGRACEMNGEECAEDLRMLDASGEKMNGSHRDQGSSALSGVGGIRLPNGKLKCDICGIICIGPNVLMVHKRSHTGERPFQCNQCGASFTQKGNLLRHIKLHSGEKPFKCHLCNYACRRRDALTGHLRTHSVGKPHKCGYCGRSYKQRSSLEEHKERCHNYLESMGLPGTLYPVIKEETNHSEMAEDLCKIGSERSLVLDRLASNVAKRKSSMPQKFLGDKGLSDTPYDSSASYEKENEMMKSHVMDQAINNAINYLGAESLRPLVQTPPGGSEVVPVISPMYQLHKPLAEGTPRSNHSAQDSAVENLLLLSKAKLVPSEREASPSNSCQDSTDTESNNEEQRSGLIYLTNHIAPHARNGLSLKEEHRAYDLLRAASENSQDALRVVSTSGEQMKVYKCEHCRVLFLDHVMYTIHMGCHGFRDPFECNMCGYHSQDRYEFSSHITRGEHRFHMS
IKZF1, sequence (Q96SW2 whole entry): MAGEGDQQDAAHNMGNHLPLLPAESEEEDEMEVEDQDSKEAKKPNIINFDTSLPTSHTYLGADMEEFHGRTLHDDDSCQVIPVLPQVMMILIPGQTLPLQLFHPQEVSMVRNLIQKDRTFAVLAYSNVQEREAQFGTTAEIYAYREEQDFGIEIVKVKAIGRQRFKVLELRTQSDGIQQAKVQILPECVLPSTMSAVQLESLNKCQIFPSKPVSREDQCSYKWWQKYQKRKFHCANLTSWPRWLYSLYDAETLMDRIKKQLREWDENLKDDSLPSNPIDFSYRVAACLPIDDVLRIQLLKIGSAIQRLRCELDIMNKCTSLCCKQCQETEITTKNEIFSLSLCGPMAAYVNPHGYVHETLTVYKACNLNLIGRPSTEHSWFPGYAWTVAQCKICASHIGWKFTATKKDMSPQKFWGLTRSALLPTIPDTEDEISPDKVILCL
IKZF1, sequence (Q16531 2-1140 partner): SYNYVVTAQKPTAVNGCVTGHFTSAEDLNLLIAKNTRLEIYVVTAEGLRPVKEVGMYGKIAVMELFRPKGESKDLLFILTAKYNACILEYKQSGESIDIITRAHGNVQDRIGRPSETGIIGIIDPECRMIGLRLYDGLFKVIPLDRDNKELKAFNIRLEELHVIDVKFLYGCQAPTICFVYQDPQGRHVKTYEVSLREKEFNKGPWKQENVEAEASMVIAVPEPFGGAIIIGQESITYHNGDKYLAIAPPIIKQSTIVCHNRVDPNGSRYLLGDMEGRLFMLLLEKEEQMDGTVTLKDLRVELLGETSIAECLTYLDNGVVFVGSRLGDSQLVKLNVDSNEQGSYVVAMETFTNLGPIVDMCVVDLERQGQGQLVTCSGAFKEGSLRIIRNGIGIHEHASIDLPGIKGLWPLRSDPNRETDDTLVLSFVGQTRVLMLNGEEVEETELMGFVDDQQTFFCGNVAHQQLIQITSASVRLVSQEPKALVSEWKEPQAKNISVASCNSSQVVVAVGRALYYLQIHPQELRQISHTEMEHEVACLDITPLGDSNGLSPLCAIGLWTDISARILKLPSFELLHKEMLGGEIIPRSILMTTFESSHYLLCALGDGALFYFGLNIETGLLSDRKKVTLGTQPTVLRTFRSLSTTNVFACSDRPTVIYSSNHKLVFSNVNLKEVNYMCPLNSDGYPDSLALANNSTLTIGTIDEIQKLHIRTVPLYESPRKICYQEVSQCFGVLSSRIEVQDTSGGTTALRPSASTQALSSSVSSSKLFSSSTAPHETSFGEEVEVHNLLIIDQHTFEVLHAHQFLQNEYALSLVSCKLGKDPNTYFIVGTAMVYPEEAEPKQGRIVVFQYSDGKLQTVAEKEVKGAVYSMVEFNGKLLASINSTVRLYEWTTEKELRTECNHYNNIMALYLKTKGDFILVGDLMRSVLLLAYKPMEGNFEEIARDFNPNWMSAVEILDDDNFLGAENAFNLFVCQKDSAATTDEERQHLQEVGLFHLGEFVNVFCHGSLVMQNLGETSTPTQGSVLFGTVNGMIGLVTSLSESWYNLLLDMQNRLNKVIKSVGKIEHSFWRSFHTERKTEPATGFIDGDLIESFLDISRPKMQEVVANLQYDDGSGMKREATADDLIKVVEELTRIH
CRBN/DDB1, sequence (Q96SW2 whole entry, species assumed): as the sequence (Q96SW2 whole entry) above
CRBN/DDB1, sequence (Q16531 whole entry partner, species assumed): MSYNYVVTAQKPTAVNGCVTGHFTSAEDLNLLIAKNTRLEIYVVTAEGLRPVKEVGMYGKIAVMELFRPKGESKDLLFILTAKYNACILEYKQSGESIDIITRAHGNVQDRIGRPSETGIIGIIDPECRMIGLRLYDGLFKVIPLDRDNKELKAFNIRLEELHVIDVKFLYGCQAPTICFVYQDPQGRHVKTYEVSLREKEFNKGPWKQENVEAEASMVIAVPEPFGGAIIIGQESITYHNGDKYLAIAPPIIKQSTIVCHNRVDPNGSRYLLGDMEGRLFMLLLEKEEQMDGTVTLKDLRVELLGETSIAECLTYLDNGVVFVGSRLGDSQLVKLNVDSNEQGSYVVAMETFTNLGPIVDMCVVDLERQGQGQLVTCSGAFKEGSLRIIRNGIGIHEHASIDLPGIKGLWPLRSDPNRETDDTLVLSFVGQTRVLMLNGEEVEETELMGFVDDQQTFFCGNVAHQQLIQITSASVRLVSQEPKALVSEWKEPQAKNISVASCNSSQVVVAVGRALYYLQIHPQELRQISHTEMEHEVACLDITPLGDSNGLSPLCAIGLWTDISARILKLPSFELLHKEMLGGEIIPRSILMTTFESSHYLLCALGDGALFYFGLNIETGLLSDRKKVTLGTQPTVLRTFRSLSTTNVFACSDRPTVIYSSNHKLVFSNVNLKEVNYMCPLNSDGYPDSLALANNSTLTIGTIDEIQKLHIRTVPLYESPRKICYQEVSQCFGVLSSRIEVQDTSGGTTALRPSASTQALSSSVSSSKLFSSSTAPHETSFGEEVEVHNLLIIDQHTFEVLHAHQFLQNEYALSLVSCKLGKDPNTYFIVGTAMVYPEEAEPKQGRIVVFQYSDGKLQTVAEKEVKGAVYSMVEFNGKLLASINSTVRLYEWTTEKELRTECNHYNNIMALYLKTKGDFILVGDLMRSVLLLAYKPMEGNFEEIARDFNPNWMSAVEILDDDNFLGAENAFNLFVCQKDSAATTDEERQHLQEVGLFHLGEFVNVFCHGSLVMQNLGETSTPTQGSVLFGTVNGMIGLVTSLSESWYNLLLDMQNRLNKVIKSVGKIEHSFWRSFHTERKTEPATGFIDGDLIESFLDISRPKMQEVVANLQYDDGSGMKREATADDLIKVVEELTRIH
IKZF2, sequence (Q9UKS7 whole entry): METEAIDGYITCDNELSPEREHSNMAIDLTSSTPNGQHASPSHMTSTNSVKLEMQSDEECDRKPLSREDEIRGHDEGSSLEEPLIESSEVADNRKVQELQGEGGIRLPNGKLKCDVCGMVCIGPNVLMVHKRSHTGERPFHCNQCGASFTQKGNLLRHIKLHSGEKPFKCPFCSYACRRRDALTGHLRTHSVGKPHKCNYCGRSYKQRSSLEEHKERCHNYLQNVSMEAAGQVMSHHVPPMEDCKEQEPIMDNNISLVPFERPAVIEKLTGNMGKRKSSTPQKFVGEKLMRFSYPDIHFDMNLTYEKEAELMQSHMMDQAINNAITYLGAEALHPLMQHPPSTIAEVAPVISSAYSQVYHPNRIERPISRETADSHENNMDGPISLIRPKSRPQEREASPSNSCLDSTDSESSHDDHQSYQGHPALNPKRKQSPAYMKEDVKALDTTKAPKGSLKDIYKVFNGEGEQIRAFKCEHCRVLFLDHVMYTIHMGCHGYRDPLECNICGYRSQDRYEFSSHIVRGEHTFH
IKZF2, sequence (Q96SW2 whole entry): as the sequence (Q96SW2 whole entry) above
IKZF2, sequence (Q16531 2-1140 partner): as the sequence (Q16531 2-1140 partner) above

Compound	IC50 (CRBN/DDB1)	DC50 (IKZF2)	Dmax (IKZF2)	DC50 (IKZF1)	Dmax (IKZF1)
O=C1CCC(N2Cc3cc(-c4cc(CN5CCCC5)cc5cncn45)cc(F)c3C2=O)C(=O)N1 (centres unmarked) [Example 28, 3-(7-fluoro-1-oxo-5-(7-(pyrrolidin-1-ylmethyl)imidazo[1,5-a]pyridin-5-yl)isoindolin-2-yl) piperidine-2,6-dione]	500 to 1000 nM				
O=C1CCC(N2Cc3cc(-c4cc(CN5CCCC5)cc5cncn45)c(F)cc3C2=O)C(=O)N1 (centres unmarked) [Example 29, 3-(6-fluoro-1-oxo-5-(7-(pyrrolidin-1-ylmethyl)imidazo[1,5-a]pyridin-5-yl)isoindolin-2-yl) piperidine-2,6-dione]	1000 to 5000 nM				
COc1cc2c(cc1-c1cc(CN3CCCC3)cc3cncn13)CN(C1CCC(=O)NC1=O)C2=O (centres unmarked) [Example 30, 3-(6-methoxy-1-oxo-5-(7-(pyrrolidin-1-ylmethyl)imidazo[1,5-a]pyridin-5-yl)isoindolin-2-yl) piperidine-2,6-dione]	1000 to 5000 nM	1000 to 10000 nM	< 20%	> 10000 nM	< 20%
COc1cc(-c2cc(CN3CCCC3)cc3cncn23)cc2c1C(=O)N(C1CCC(=O)NC1=O)C2 (centres unmarked) [Example 32, 3-(7-methoxy-1-oxo-5-(7-(pyrrolidin-1-ylmethyl)imidazo[1,5-a]pyridin-5-yl)isoindolin-2-yl) piperidine-2,6-dione]	100 to 500 nM				
O=C1CCC(N2Cc3cc(-c4cc(CN5CCCC5c5ccccc5)cc5nncn45)ccc3C2=O)C(=O)N1 (centres unmarked) [Example 50, 3-(1-oxo-5-(7-((2-phenylpyrrolidin-1-yl)methyl)-[1,2,4]triazolo[4,3-a]pyridin-5-yl)isoindolin-2-yl) piperidine-2,6-dione]	1000 to 5000 nM				
Cn1ccc2c(CN3CCCCC3)cc(-c3ccc4c(c3)CN(C3CCC(=O)NC3=O)C4=O)nc21 (centres unmarked) [Example 57, 3-(5-(1-methyl-4-(piperidin-1-ylmethyl)-1H-pyrrolo[2,3-b]pyridin-6-yl)-1-oxoisoindolin-2-yl) piperidine-2,6-dione]	100 to 500 nM	< 1 nM	> 80%	> 10000 nM	20 to 40%
Cn1ccc2c(CN3CCOCC3)cc(-c3ccc4c(c3)CN(C3CCC(=O)NC3=O)C4=O)nc21 (centres unmarked) [Example 58, 3-(5-(1-methyl-4-(morpholinomethyl)-1H-pyrrolo[2,3-b]pyridin-6-yl)-1-oxoisoindolin-2-yl) piperidine-2,6-dione]	500 to 1000 nM	1 to 10 nM	60 to 80%	> 10000 nM	< 20%
O=C1CCC(N2Cc3cc(-c4cc(CN5CCCC5)c5cc[nH]c5n4)ccc3C2=O)C(=O)N1 (centres unmarked) [Example 59, 3-(1-oxo-5-(4-(pyrrolidin-1-ylmethyl)-1H-pyrrolo[2,3-b]pyridin-6-yl)isoindolin-2-yl) piperidine-2,6-dione]	100 to 500 nM	1 to 10 nM	> 80%	> 10000 nM	20 to 40%
Cn1ccc2c(CN3CCC(F)(F)CC3)cc(-c3ccc4c(c3)CN(C3CCC(=O)NC3=O)C4=O)nc21 (centres unmarked) [Example 60, 3-(5-(4-((4,4-difluoropiperidin-1-yl)methyl)-1-methyl-1H-pyrrolo[2,3-b]pyridin-6-yl)-1-oxoisoindolin-2-yl) piperidine-2,6-dione]	500 to 1000 nM	1 to 10 nM	60 to 80%	> 10000 nM	< 20%
Cn1ccc2c(CN3CCN(S(C)(=O)=O)CC3)cc(-c3ccc4c(c3)CN(C3CCC(=O)NC3=O)C4=O)nc21 (centres unmarked) [Example 61, 3-(5-(1-methyl-4-((4-(methylsulfonyl)piperazin-1-yl)methyl)-1H-pyrrolo[2,3-b]pyridin-6-yl)-1-oxoisoindolin-2-yl) piperidine-2,6-dione]	500 to 1000 nM	10 to 100 nM	40 to 60%	> 10000 nM	< 20%
Cn1ccc2c(CN3CCSCC3)cc(-c3ccc4c(c3)CN(C3CCC(=O)NC3=O)C4=O)nc21 (centres unmarked) [Example 62, 3-(5-(1-methyl-4-(thiomorpholinomethyl)-1H-pyrrolo[2,3-b]pyridin-6-yl)-1-oxoisoindolin-2-yl) piperidine-2,6-dione]	100 to 500 nM	1 to 10 nM	> 80%	> 10000 nM	< 20%
Cn1ccc2c(CN3CC4COCC4C3)cc(-c3ccc4c(c3)CN(C3CCC(=O)NC3=O)C4=O)nc21 (centres unmarked) [Example 63, 3-(5-(1-methyl-4-((tetrahydro-1H-furo[3,4-c]pyrrol-5 (3H)-yl)methyl)-1H-pyrrolo[2,3-b]pyridin-6-yl)-1-oxoisoindolin-2-yl) piperidine-2,6-dione]	100 to 500 nM	< 1 nM	> 80%	> 10000 nM	20 to 40%
CNc1[nH]nc2c(CN3CCCC3)cc(-c3ccc4c(c3F)CN(C3CCC(=O)NC3=O)C4=O)nc12 (centres unmarked) [Example 296, 3-(4-fluoro-5-(3-(methylamino)-7-(pyrrolidin-1-ylmethyl)-1H-pyrazolo[4,3-b]pyridin-5-yl)-1-oxoisoindolin-2-yl) piperidine-2,6-dione]		< 1 nM	> 80%	1 to 10 nM	60 to 80%
CS(=O)(=O)Nc1n[nH]c2c(CN3CCCC3)cc(-c3ccc4c(c3F)CN(C3CCC(=O)NC3=O)C4=O)nc12 (centres unmarked) [Example 297, N-(5-(2-(2,6-dioxopiperidin-3-yl)-4-fluoro-1-oxoisoindolin-5-yl)-7-(pyrrolidin-1-ylmethyl)-1H-pyrazolo[4,3-b]pyridin-3-yl) methanesulfonamide]		> 10000 nM	< 20%	> 10000 nM	< 20%
CC(C)Nc1n[nH]c2c(CN3CCCC3)cc(-c3ccc4c(c3)CN(C35CC(C3)C(=O)NC5=O)C4=O)nc12 [Example 298, 1-(5-(3-(isopropylamino)-7-(pyrrolidin-1-ylmethyl)-1H-pyrazolo[4,3-b]pyridin-5-yl)-1-oxoisoindolin-2-yl)-3-azabicyclo[3.1.1]heptane-2,4-dione]		< 1 nM	20 to 40%	> 10000 nM	< 20%
